Literature values in patent US20260216162A1, “SELECTIVE FIASMA TREATMENT” (VALO HEALTH, INC., priority 2023, published 2026).

Tests used:
[1] = system: acid sphyingomyelinase (ASMase); settings: final concentration of 10 µM, 30 minutes, 37° C.; normalized to control cells treated with the solvent alone

| Residual ASMase Activity (%) [1] | Log P | Structure (SMILES) |
| --- | --- | --- |
| 31.7% | 3.9 | Fc1ccc([C@@H]2CCNC[C@H]2COc2ccc3c(c2)OCO3)cc1 [Paroxetine] |
| 13.0% |  | CNCCC(Oc1ccc(C(F)(F)F)cc1)c1ccccc1 (stereo not drawn) [Fluoxetine] |
